Measured values: US8652440B2, “Methods for diagnosing diseases and evaluating treatments therefor using PET” (The Trustees of Columbia University in the City of New York, priority 2007, dated 2014)
Read-outs that look alike come from different tables or passages of the source.

Target: central M2 cholinergic receptors (Homo sapiens, UniProt P08172)
Settings: mean of 11 subjects; for K1 (rate constant for transfer from plasma to the tissue) / VT (total distribution volume) / K2 (tissue clearance rate constant): 1TKA
Source text: Synapse 49:150-156 (2003). […] Carson R E, Kiesewetter D O, Jagoda E, Der M G, Herscovitch P, Eckelman W C, Muscarinic cholinergic receptor measurements with [^18F]FP-TZTP: control and competition studies. […] J Nucl Med 40:30P (1999).
Step 1: To calculate group mean parameter values that can be used for computer simulation analysis, ROI TACs were fitted by one-tissue kinetic analysis “1TKA” using individual metabolite-corrected plasma input functions. The mean 1TKA parameter values from 11 subjects were then used to generate noise-free TAC data as described below in Step 3.
Step 2: ROI TAC percent noise was calculated based on deviations from 1TKA fitting (100×SD/mean) for the latter portion of the TAC (60 to 120 min) and the mean percent noise over these 11 subjects was calculated (Table 2).

Sequence of central M2 cholinergic receptors (P08172 whole entry): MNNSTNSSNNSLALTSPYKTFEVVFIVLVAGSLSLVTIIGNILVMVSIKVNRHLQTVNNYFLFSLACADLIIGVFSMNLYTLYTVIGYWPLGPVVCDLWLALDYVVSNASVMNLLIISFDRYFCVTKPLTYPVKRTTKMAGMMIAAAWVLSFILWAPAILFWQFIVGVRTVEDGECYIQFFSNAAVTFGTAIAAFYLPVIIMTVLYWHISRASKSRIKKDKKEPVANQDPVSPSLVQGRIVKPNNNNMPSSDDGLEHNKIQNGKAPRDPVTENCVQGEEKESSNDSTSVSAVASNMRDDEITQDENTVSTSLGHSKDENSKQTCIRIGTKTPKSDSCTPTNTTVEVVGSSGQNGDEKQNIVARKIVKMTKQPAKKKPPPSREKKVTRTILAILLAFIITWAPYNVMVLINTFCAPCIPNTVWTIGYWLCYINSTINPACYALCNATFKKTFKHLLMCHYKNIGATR

CN1CCC=C(c2nsnc2SCCC[18F])C1 [[^18F]FP-TZTP, 3-(3-(3-[18F]Fluropropyl)thio-1,2,5-thiadiazol-4-yl)-1,2,5,6 tetrahydro-1-methylpyridine]
K1 (rate constant for transfer from plasma to the tissue) (cerebellum (input region, K'1)): 0.466 mL/min/cm^3
VT (total distribution volume) (cerebellum (input region, V'T)): 43 mL/cm^3
K2 (tissue clearance rate constant) (cerebellum (input region, k'2)): 0.0110 min⁻¹
k2/k′2 (thalamus k2 relative to cerebellum k′2): 1.60
K1 (rate constant for transfer from plasma to the tissue) (thalamus): 0.506 mL/min/cm^3
K2 (tissue clearance rate constant) (thalamus): 0.0176 min⁻¹
VT (total distribution volume) (thalamus): 29 mL/cm^3
